# Test results from patent publication US20210085640A1, “ACYLATED CATECHIN POLYPHENOLS AND METHODS OF THEIR USE FOR THE TREATMENT OF CANCER” (Flagship Pioneering Innovations V, Inc., priority 2018, published 2021).
# How the values were obtained:
# Type in all cases: cell-based
# T24 bladder cancer cells = test: Cancer cell survival (CellTiter-Glo), T24; conditions: Homo sapiens
# Method in brief: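 Viability by CellTiter-Glo after 72 h compound treatment of T24 bladder cancer cells (4×10^3/well, plated the night before), nine concentration levels in triplicate. Percent survival normalised to untreated cells minus medium background, from which IC50 was determined.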
# [1] = tested on: Daudi lymphoma cancer cells; test: Cancer cell survival (CellTiter-Glo), Daudi; conditions: Homo sapiens, 72 h
# Method in brief: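 Daudi cells (4×10^3/well) were exposed for 72 h at 37 °C to nine concentrations of compound, added as 10× solutions spanning 1 μM–10 mM (fatty acids) or 100 nM–1 mM (others). CellTiter-Glo luminescence gave % survival versus untreated, medium-blank corrected; IC50 derived.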
# MCF7 breast cancer cells = test: Cancer cell survival (CellTiter-Glo), MCF7; conditions: Homo sapiens, 72 h
# Method in brief: (§1)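 Luminescent ATP read-out (CellTiter-Glo) after 72 h compound exposure at 37 C/5% CO2. Survival % is calculated against untreated cells minus medium background, and IC50 is taken from nine concentrations run in triplicate. Plating density was 4×10^3 cells/well with overnight attachment beforehand.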
# [2] = tested on: HCT 116 colorectal cancer cells; test: Cancer cell survival (CellTiter-Glo), HCT 116; conditions: Homo sapiens, HCT 116 cells, 72 h
# Method in brief: as §1
# A549 lung cancer cells = test: Cancer cell survival (CellTiter-Glo), A549; conditions: Homo sapiens, 72 h
# Method in brief: as §1
# [3] = tested on: PC-3 prostate cancer cells; test: Cancer cell survival (CellTiter-Glo), PC-3; conditions: Homo sapiens, PC-3 cells, 72 h
# Method in brief: as §1
# A-431 skin cancer cells = test: Cancer cell survival (CellTiter-Glo), A-431; conditions: Homo sapiens, A-431 cells, 72 h
# Method in brief: as §1
# AGS stomach cancer cells = test: Cancer cell survival (CellTiter-Glo), AGS
# Method in brief: as §1
# [4] = 101 nM, read-out: Cell survival at given concentration
# [5] = 318 nM, read-out: Cell survival at given concentration
# [6] = 1 μM, read-out: Cell survival at given concentration
# [7] = 3 μM, read-out: Cell survival at given concentration
# [8] = 10 μM, read-out: Cell survival at given concentration
# [9] = 32 μM, read-out: Cell survival at given concentration
# [10] = 100 μM, read-out: Cell survival at given concentration
# [11] = 316 μM, read-out: Cell survival at given concentration
# [12] = 1000 μM, read-out: Cell survival at given concentration
smiles,measurement,setting,value
O=c1cc(-c2ccc(O)c(O)c2)oc2cc(O)cc(O)c12 [luteolin],viability at 0.101 µM,"T24 bladder cancer cells; T-24, 101 nM, 72 h, read-out: Cell survival at given concentration",99%
same,viability at 0.318 µM,"T24 bladder cancer cells; T-24, 318 nM, 72 h, read-out: Cell survival at given concentration",102%
same,viability at 1 µM,"T24 bladder cancer cells; T-24, 1 μM, 72 h, read-out: Cell survival at given concentration",103%
same,viability at 3 µM,"T24 bladder cancer cells; T-24, 3 μM, 72 h, read-out: Cell survival at given concentration",94%
same,viability at 10 µM,"T24 bladder cancer cells; T-24, 10 μM, 72 h, read-out: Cell survival at given concentration",85%
same,viability at 32 µM,"T24 bladder cancer cells; T-24, 32 μM, 72 h, read-out: Cell survival at given concentration",35%
same,viability at 100 µM,"T24 bladder cancer cells; T-24, 100 μM, 72 h, read-out: Cell survival at given concentration",9%
same,viability at 316 µM,"T24 bladder cancer cells; T-24, 316 μM, 72 h, read-out: Cell survival at given concentration",8%
same,viability at 1000 µM,"T24 bladder cancer cells; T-24, 1000 μM, 72 h, read-out: Cell survival at given concentration",6%
same,IC50,"T24 bladder cancer cells; T-24, 72 h, Table 3.1, read-out: 1050",22.8 µM
same,viability at 0.101 µM,[1]; [4],100%
same,viability at 0.318 µM,[1]; [5],102%
same,viability at 1 µM,[1]; [6],103%
same,viability at 3 µM,[1]; [7],106%
same,viability at 10 µM,[1]; [8],85%
same,viability at 32 µM,[1]; [9],33%
same,viability at 100 µM,[1]; [10],10%
same,viability at 316 µM,[1]; [11],6%
same,viability at 1000 µM,[1]; [12],16%
same,IC50,[1]; Table 4.1,21.6 µM
same,viability at 0.101 µM,MCF7 breast cancer cells; [4],96%
same,viability at 0.318 µM,MCF7 breast cancer cells; [5],99%
same,viability at 1 µM,MCF7 breast cancer cells; [6],103%
same,viability at 3 µM,MCF7 breast cancer cells; [7],104%
same,viability at 10 µM,MCF7 breast cancer cells; [8],108%
same,viability at 32 µM,MCF7 breast cancer cells; [9],60%
same,viability at 100 µM,MCF7 breast cancer cells; [10],31%
same,viability at 316 µM,MCF7 breast cancer cells; [11],26%
same,viability at 1000 µM,MCF7 breast cancer cells; [12],24%
same,IC50,MCF7 breast cancer cells; Table 5.1,36 µM
same,viability at 0.101 µM,[2]; [4],100%
same,viability at 0.318 µM,[2]; [5],98%
same,viability at 1 µM,[2]; [6],101%
same,viability at 3 µM,[2]; [7],97%
same,viability at 10 µM,[2]; [8],93%
same,viability at 32 µM,[2]; [9],29%
same,viability at 100 µM,[2]; [10],2%
same,viability at 316 µM,[2]; [11],6%
same,viability at 1000 µM,[2]; [12],1%
same,IC50,[2]; Table 6.1,23.8 µM
same,viability at 0.101 µM,A549 lung cancer cells; [4],96%
same,viability at 0.318 µM,A549 lung cancer cells; [5],98%
same,viability at 1 µM,A549 lung cancer cells; [6],100%
same,viability at 3 µM,A549 lung cancer cells; [7],100%
same,viability at 10 µM,A549 lung cancer cells; [8],101%
same,viability at 32 µM,A549 lung cancer cells; [9],84%
same,viability at 100 µM,A549 lung cancer cells; [10],37%
same,viability at 316 µM,A549 lung cancer cells; [11],13%
same,viability at 1000 µM,A549 lung cancer cells; [12],10%
same,IC50,A549 lung cancer cells; Table 7.1,74.2 µM
same,viability at 0.101 µM,[3]; [4],100%
same,viability at 0.318 µM,[3]; [5],99%
same,viability at 1 µM,[3]; [6],100%
same,viability at 3 µM,[3]; [7],102%
same,viability at 10 µM,[3]; [8],96%
same,viability at 32 µM,[3]; [9],74%
same,viability at 100 µM,[3]; [10],52%
same,viability at 316 µM,[3]; [11],23%
same,viability at 1000 µM,[3]; [12],23%
same,IC50,[3]; Table 8.1,93.5 µM
same,viability at 0.101 µM,A-431 skin cancer cells; [4],101%
same,viability at 0.318 µM,A-431 skin cancer cells; [5],99%
same,viability at 1 µM,A-431 skin cancer cells; [6],102%
same,viability at 3 µM,A-431 skin cancer cells; [7],101%
same,viability at 10 µM,A-431 skin cancer cells; [8],99%
same,viability at 32 µM,A-431 skin cancer cells; [9],61%
same,viability at 100 µM,A-431 skin cancer cells; [10],39%
same,viability at 316 µM,A-431 skin cancer cells; [11],20%
same,viability at 1000 µM,A-431 skin cancer cells; [12],4%
same,IC50,A-431 skin cancer cells; Table 9.1,71.8 µM
same,viability at 0.101 µM,"AGS stomach cancer cells; 72 h, 101 nM, read-out: Cell survival at given concentration",99%
same,viability at 0.318 µM,"AGS stomach cancer cells; 72 h, 318 nM, read-out: Cell survival at given concentration",100%
same,viability at 1 µM,"AGS stomach cancer cells; 72 h, 1 μM, Table 10.1, read-out: Cell survival at given concentration",103%
same,viability at 3 µM,"AGS stomach cancer cells; 72 h, 3 μM, Table 10.1, read-out: Cell survival at given concentration",106%
same,viability at 10 µM,"AGS stomach cancer cells; 72 h, 10 μM, Table 10.1, read-out: Cell survival at given concentration",106%
same,viability at 32 µM,"AGS stomach cancer cells; 72 h, 32 μM, Table 10.1, read-out: Cell survival at given concentration",77%
same,viability at 100 µM,"AGS stomach cancer cells; 72 h, 100 μM, Table 10.1, read-out: Cell survival at given concentration",29%
same,viability at 316 µM,"AGS stomach cancer cells; 72 h, 316 μM, read-out: Cell survival at given concentration",8%
same,viability at 1000 µM,"AGS stomach cancer cells; 72 h, 1000 μM, read-out: Cell survival at given concentration",3%
same,IC50,AGS stomach cancer cells; Table 10.1,68.2 µM
